Results on one compound are retold here after patent publication US12521439B2, “Methods and materials for modulating Nrf2 pathway” (The General Hospital Corporation, priority 2019, dated 2026).

For assay [1], the system named is HO1 transcripts in MDA-MB-231 tumors. The experiment in a line: HO1 mRNA in fat pad breast tumors in vivo. Set-up: species or system mice. The conditions noted are these: 7.5 mg/kg i.p. for four consecutive days. The protocol: (§1) Real-time qRT-PCR: Total RNA isolation from cultured cells was performed using RNeasy kit (Qiagen), followed by reverse transcription with OneScript cDNA synthesis Kit (ABM). mRNA expression of different genes was then analyzed by quantitative PCR using PowerUp SYBR Green Master Mix (Applied Biosystems) and performed using a QuantStudio3 real-time PCR system (Applied Biosystems). Primer sequences for HO1, NQO1, TXNRD2 were obtained from the MGH primer bank and were as follows: HO1 Forward, 5′-[…]-3′ and reverse 5′-[…]-3′; NQO1 Forward 5′-[…]-3′ and reverse 5′-[…]-3′ and Txnrd2 forward 5′-[…]-3 and reverse 5′-[…]. Oligonucleotides were synthesized by the CCIB DNA Core Facility at Massachusetts General Hospital. Expression of human GAPDH was used to mRNA normalization and relative mRNA expression was calculated using the comparative Ct method.
In vivo Tumor Models: Animal experiments performed by our laboratory were approved by the Massachusetts General Hospital Subcommittee on Research Animal Care. Female athymic nude mice (6-8 weeks) were used in all studies with the exception of pharmacokinetics analysis. For brain tumors xenograft model, GBM8 cells (1×10^5 cells/mouse) stably expressing Fluc were stereotactically implanted into the left striatum of animals. […] Tumor volumes were measured using a caliper and calculated according to the following formula: volume=(width)^2×length/2. […]

Another assay deals with HO1, NQO1, TXNRD2 mRNA. As to the kind of experiment: qRT-PCR of Nrf2 target genes in cancer cells. It is filed as cell-based, human. The protocol: as §1
For orientation: Real-time PCR tracks product formation cycle by cycle.

The subject of assay [2] is patient-derived GBM8 GSC tumors. As to the kind of experiment: FDG-PET imaging of orthotopic GSC brain tumors. The conditions noted are these: 3 doses of 10 mg/kg within 24 h, imaged 4 h after last dose; tumor to muscle ratio. It is filed as in vivo, mice. An excerpt: In vivo Tumor Models: Animal experiments performed by our laboratory were approved by the Massachusetts General Hospital Subcommittee on Research Animal Care. Female athymic nude mice (6-8 weeks) were used in all studies with the exception of pharmacokinetics analysis. For brain tumors xenograft model, GBM8 cells (1×10^5 cells/mouse) stably expressing Fluc were stereotactically implanted into the left striatum of animals. Following implantation, animals were regularly imaged for Fluc to monitor brain tumor growth. To generate the breast cancer model, MDA-MB-231 cells (2.5×10^5 cells/mouse) expressing Fluc were mixed with Matrigel 1:1 (v/v) (BD Matrigel) and injected into the mammary fat pad of mice. Tris-OBT was dissolved in PBS and administered intraperitoneally. Tumor volumes were measured using a caliper and calculated according to the following formula: volume=(width)^2×length/2. […]
FDG-PET imaging: Mouse PET/CT scans (n=6, 3 per group) were performed sequentially using a custom-designed mouse bed and PET/CT gantry adapter. […] The same ROIs are then copied to the matching PET images for quantification of the ^18F-FDG PET signal as the standard uptake values (SUVs). […]

The next assay concerns ARE (Nrf2 pathway). As to the kind of experiment: ARE-Gluc luciferase reporter (normalized to SV40-Vluc). It is filed as cell-based, human. From the text: DNA expression constructs: ARE reporter was designed and generated based on our previously published reporter for monitoring of the transcription factor Nuclear Factor Kappa B (NFkB). NFkB TRE elements were removed and replaced with four copies of the ARE enhancer sequence. This reporter consists of a CSCW lentivirus vector in which we have introduced two copies of the 1.2 kb chicken beta-globin (HS4) insulator elements, a TATA box acting as a minimal promoter upstream of the secreted Gaussia luciferase (Gluc). pcDNA3-HA2-Keap1 (Addgene plasmid #21556) and pcDNA3-HA2-Keap1 delta BTB (Addgene plasmid #21593) were a gift from Yue Xiong^2. pHAGE DN Cullin 3 (DN-CUL3) was a gift from Stephen Elledge (Addgene plasmid #41913). Constructs expressing constitutively active Gluc, Firefly luciferase (Fluc) and Vargula luciferase (Vluc) were previously describe. MISSION shRNA Bacterial Glycerol Stocks for Keap1 as well as a non-target shRNA were obtained from Sigma. Transfection of plasmid DNA was performed using Lipofectamine 2000 (Invitrogen) as per manufacturer's guidelines. Lentivirus packaging and titration was performed in 293T cells by the MGH viral vector core facility following standard protocols. Keap1 mutant C151S plasmid was kindly provided by Dr. Wooyoung Hur.
Luciferase assay: Coelenterazine (20 μM; Nanolight), The Gluc substrate was added to a 25 μL aliquot of conditioned medium and photon counts were measured using a luminometer. Similarly, the secreted Vluc activity was measured by adding its substrate vargulin (5 ng/mL; Nanolight). Cells stably expressing Gluc under the ARE enhancer sequence and Vluc under the constitutively active SV40 minimal promoter were used to determine the ARE reporter activity. The normalized Gluc/Vluc ratio was used as a marker for ARE activation.

Regarding `COC1=CC(=O)C(O)=C/C1=C/C=C/c1ccccc1` [OBT, (Z)-2-hydroxy-5-methoxy-4-((E)-3-phenylallylidene)cyclohexa-2,5-dien-1-one], the “upregulation of HO1 transcripts in the tumor” value in assay [1] is 7 fold. For the same compound, the “NQO1 and TXNRD2 mRNA” value in the assay on HO1, NQO1, TXNRD2 mRNA (U87 and MDA-MB-231 cells) is reported as “upregulated”. Moreover, in the assay on HO1, NQO1, TXNRD2 mRNA (different cancer cells, 8 hours, normalized to GAPDH), the “HO1 mRNA expression” value was “strong increase”. In addition, the “decrease in FDG tumor uptake” value in assay [2] is reported as about 50%. Moreover, in the assay on ARE (Nrf2 pathway) (addition of NAC, DTT, GSH, U87), the “OBT-induced ARE activation and loss of cell viability with thiol antioxidants” value was “completely reversed”. In addition, the “OBT-induced ARE activation and loss of cell viability with Trolox” value in the assay on ARE (Nrf2 pathway) (addition of Trolox, U87) is “only partially”. Besides, the “ARE luciferase reporter activity” value with ARE (Nrf2 pathway) (sub-toxic doses, higher than positive control tBHQ, U87 and MDA-MB-231) was “strongly activated”.
